From patent US20230381213A1, “SYNTHESIS AND USES OF GINSENOSIDE COMPOUND K DERIVATIVES” (The University of Hong Kong, priority 2022, published 2023)
Like-named read-outs stand apart in the source and are kept apart here.

Key:
A549 cells [1] = test: Apoptosis by flow cytometry (Annexin V-FITC / propidium iodide); format: cell-based; settings: 48 hours
Procedure: (§1) The effect of CK and CKD-4 on cell apoptosis and cell death is indicated by A549 cells treated with 60 μM of CK and 20 μM of CKD-4 for 48 hours that are analyzed by flow cytometry. […] Angiogenesis is another hallmark of cancer which plays an important role in metastasis and tumor growth. […] Cancer stem cells, owing to their ability of self-renewal, have become the major reason for relapse of tumor and poor prognosis. The efficacy of CKD-4 in lung cancer patient derived organoid is indicated using CellTiterGlo assay, where three state of the art clinical anti-cancer drugs, carboplatin, cisplatin, and paclitaxel are a positive control. The dosage of these three drugs is sufficient to trigger a 30% inhibition of cell viability. FIG. 6 and FIG. 7 indicated less than 30% suppression of cell viability is observed with treatment of 20 μM CKD-4.

MHCC97-L cells = test: MTT cytotoxicity in MHCC97-L cells; format: cell-based; settings: MHCC97L; MHCC97-L liver cancer, 72 hours
[2] = tested on: CCD-19Lu lung normal fibroblast; test: Cytotoxicity in lung normal fibroblast CCD-19Lu; format: cell-based; settings: Homo sapiens
HepG2 cells = test: MTT cytotoxicity in HepG2 cells; format: cell-based; settings: Homo sapiens; HepG2 liver cancer, 72 hours
NCI-H1650 cells = test: Cytotoxicity in NCI-H1650 cells; format: cell-based; settings: Homo sapiens
NCI-H460 xenografts = NCI-H460 xenografts in nude mice; format: in vivo; settings: 5 mg/kg intravenous once every two days; for Tumor volume: versus solvent control
PRELID1 [3] = biological target: T1, PRELID1 (Homo sapiens, UniProt Q9Y255); test: Proteome integral solubility alteration (PISA) in cells; format: cell-based; settings: in cell
T1 construct: endogenous in cells; host or cells: A549
From the text: Two label free chemical proteomics, proteome integral […] alteration assay (PISA) and ProtargetMiner (PTM) are alternative strategies to study CK and CKD-4. PISA is a turbo-charged method development of thermal proteome profiling (TPP) which based on the principle that ligand induced stability of proteins is observed upon a temperature increase. PTM is used to contrast the proteome signature of CK and CKD-4 against the PTM database to reveal their mode of action. FIGS. 9A and 9B provide an overview of the PISA results in cells with CK and CKD-4, where data is shown as a volcano plot with the X-axis as log2 ΔSm of drug over DMSO treatment and the Y-axis as log 10 p-value. In FIGS. 10 and 11 the PTM result of CK and CKD-4 in cells are compared to 9 other anti-cancer drugs in A549 cells in the database and is plotted for OPLS-DA analysis.
(§2) Most probable target candidate proteins are ranked in PISA based on the absolute value of log2 ΔSm of drug relative to DMSO treatment and PTM ranking are based on the log2 fold change of drug over DMSO treatment. The rankings of two experiments are summed to provide a list of candidate drug targets.

NCI-H460 cells [4] = test: MTT cytotoxicity in NCI-H460 cells
A549 cells [5] = test: Cell viability with phosphatidylglycerol (PG) supplement, NBB assay; format: cell-based; settings: 24 hours, PG supplemented DMEM versus DMEM
Procedure: FIG. 15C is a bar chart of the cell viability of A549 after treatment with 100 μM of CK or 12.5 μM of CKD-4 for 24 hours in DMEM or phosphatidylglycerol (PG) supplemented DMEM as mean±SD, ***P≤0.001.
(§3) PRELID3b and PRELID1 are PRELI proteins. These proteins and TRIAP1 locate within the inter membrane space responsible for the regulation of phospholipid metabolism. Therefore, a cardiolipin probe is used to measure levels of mitochondrial cardiolipin after drug treatment. […] A decreased level of cardiolipin in PRELI or TRIAP1 depleted cells appears to accelerate the release of cytochrome c, rendering cells vulnerable to apoptosis. […] Cardiolipin is synthesized by a series of steps with phosphatidylglycerol (PG) as the precursor of last step catalyzing by cardiolipin synthase.

SW480 cells = test: MTT cytotoxicity in SW480 cells; format: cell-based; settings: Homo sapiens; SW480 colon cancer, 72 hours
PRELID3b = biological target: T2, PRELID3b (Homo sapiens, UniProt Q9Y3B1); test: Cellular thermal shift assay by western blotting, PRELID3b; format: cell-based; settings: A549 cells, one hour
T2 construct: endogenous in cells; host or cells: A549
Procedure: A549 cells were treated with 50 μM of CK or 15 uM of CKD-4 for one hour, where eight lysate aliquots were heated to indicated temperature.
as §2

PRELID3b-TRIAP1-MBP = biological target: T3, PRELID3b-TRIAP1-MBP (Homo sapiens, UniProt Q9Y3B1); test: Biolayer interferometry with his tag PRELID3b-TRIAP1-MBP; format: binding; settings: for Kd: steady-state analysis, 1:1
T3 construct: made in house
From the text: To validate the docking analysis, biolayer interferometry (BLI) was employed to measure the interaction between PRELID3b and CK or CKD-4. The recombinant protein was purified by co-expression of PRELID3b with a hexa-histidine tag and the p53 regulated protein, TRIAP1 conjugated with maltose binding protein (MBP). The reported crystal structure of RELID3b is in complex with TRIAP1 and they form as a swapped dimer. PRELID3b is intrinsically unstable in the absence of TRIAP1 and easily degraded by mitochondrial protease. Maltose binding protein (MBP) is a necessary component to improve the solubility of the whole protein complex.
(§4) The sensor used is coated with Ni NTA so that proteins with the hexa-histidine tag could be immobilized on the sensor. After immobilization with protein, the sensor was incubated with the compounds at different concentrations in an ascending order. Both the stoichiometry of CK or CKD-4 with PRELID3b is in a 1:1 ratio but the kinetic modes for the two cases are different. […] The result is consistent with the docking analysis showing that the interaction between CKD-4 and PRELID3b is stronger than with CK.

Hela cells = test: MTT cytotoxicity in Hela cells; format: cell-based; settings: Homo sapiens; Hela cervical cancer, 72 hours
MS 1 cells = test: Tube formation (angiogenesis) on Matrigel; format: cell-based; settings: 4 hours
Procedure: as §1

PRELID1 [6] = biological target: T1, PRELID1; test: Cellular thermal shift assay by western blotting, PRELID1; format: cell-based; settings: A549 cells, one hour
Procedure: A549 cells were treated with 50 μM of CK or 15 μM of CKD-4 for one hour, where eight lysate aliquots were heated to indicated temperature.
as §2

[7] = tested on: cytochrome c release in A549 cells; test: Cytochrome c in cytosol fractions, western blotting; format: cell-based; settings: for Level of cytochrome c in cytosol: 24-hour treatment; for Cytochrome c release with PG in medium: 24 hours, with PG versus without PG
From the text: as §3

[8] = tested on: cardiolipin in A549 cells; test: Mitochondrial cardiolipin quantification with cardiolipin probe; format: cell-based; settings: 24-hour treatment
Procedure: FIG. 15A is a bar chart of the CK and CKD-4 induced apoptosis by quantification of cardiolipin in mitochondrial after treatment with CK or CKD-4 for 24 hours in A549 cells as mean±SD, **, P≤0.01, *, P≤0.05.
as §3

MBP = MBP (Escherichia coli, UniProt P0AEX9); test: Biolayer interferometry with his tag MBP (control); format: binding; settings: various concentrations
Procedure: as §4

A549 cells [9] = test: Cytotoxicity in A549 cells; format: cell-based; settings: Homo sapiens
NCI-H460 cells [10] = tested on: NCI-H460 cells
[11] = tested on: lung cancer patient derived organoid; test: Lung cancer patient derived organoid viability, CellTiterGlo; format: cell-based; settings: 72 hours
Procedure: as §1

A549 cells [12] = format: in vitro ADME; settings: human, 10 μM
From the text: To explore the stability of CKD-4, the amount of CK in CKD-4 treated A549 cells was also quantified.

Solubility = format: physicochemical; settings: even in dimethyl sulfoxide (DMSO)
[13] = NCI-H1650, 24 h, read-out: IC50 24 h
[14] = NCI-H1650, 48 h, read-out: IC50 48 h
[15] = NCI-H1650, 72 h, read-out: IC50 72 h
[16] = Homo sapiens, NCI-H460, 24 h, read-out: IC50 24 h
[17] = Homo sapiens, NCI-H460, 48 h, read-out: Cytotoxicity IC50
[18] = Homo sapiens, NCI-H460, 72 h, read-out: IC50 72 h
[19] = A549, 24 h, read-out: IC50 24 h
[20] = A549, 48 h, read-out: IC50 48 h
[21] = A549, 72 h, read-out: IC50 72 h

T3 sequence (Q9Y3B1 whole entry): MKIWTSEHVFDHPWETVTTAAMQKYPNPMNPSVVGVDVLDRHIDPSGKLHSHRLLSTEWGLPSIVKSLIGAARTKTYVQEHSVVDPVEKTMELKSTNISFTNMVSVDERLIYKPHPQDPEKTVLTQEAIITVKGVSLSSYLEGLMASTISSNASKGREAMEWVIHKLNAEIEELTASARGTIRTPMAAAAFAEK
T1 sequence (Q9Y255 whole entry): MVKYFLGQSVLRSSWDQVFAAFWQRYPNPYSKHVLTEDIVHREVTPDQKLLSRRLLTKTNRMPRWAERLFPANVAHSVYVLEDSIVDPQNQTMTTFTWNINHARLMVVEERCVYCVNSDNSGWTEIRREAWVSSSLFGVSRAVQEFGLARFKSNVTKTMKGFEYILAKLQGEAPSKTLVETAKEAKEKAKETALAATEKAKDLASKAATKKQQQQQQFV
T1 sequence (O43715 whole entry partner): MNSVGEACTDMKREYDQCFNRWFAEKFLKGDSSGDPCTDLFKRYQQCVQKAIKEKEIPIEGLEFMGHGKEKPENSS
T2 sequence (Q9Y3B1 whole entry): as the sequence (Q9Y3B1 whole entry) above
T2 sequence (O43715 whole entry partner): as the sequence (O43715 whole entry partner) above

Compound | IC50 ([2]; 24 h, read-out: IC50 24 h) [µM] | IC50 ([2]; 48 h, read-out: IC50 48 h) [µM] | IC50 ([2]; 72 h, read-out: IC50 72 h) [µM] | IC50 (NCI-H1650 cells; [13]) [µM] | IC50 (NCI-H1650 cells; [14]) [µM] | IC50 (NCI-H1650 cells; [15]) [µM] | Body weight (NCI-H460 xenografts) | Tumor volume (NCI-H460 xenografts) | PRELID1 stability in PISA (PRELID1 [3]) | IC50 (NCI-H460 cells [4]; [16]) [µM] | IC50 (NCI-H460 cells [4]; [17]) [µM] | IC50 (NCI-H460 cells [4]; [18]) [µM] | Kinetic mode (on/off rate) (PRELID3b-TRIAP1-MBP) | Kd (PRELID3b-TRIAP1-MBP) [µM] | Amount of mitochondrial cardiolipin [8] | Response with MBP (MBP) | IC50 (A549 cells [9]; [19]) [µM] | IC50 (A549 cells [9]; [20]) [µM] | IC50 (A549 cells [9]; [21]) [µM] | further results
CC(C)=CCC[C@](C)(OC1O[C@H](CO)[C@@H](O)[C@H](O)[C@H]1O)C1CC[C@]2(C)C1[C@H](O)CC1[C@@]3(C)CC[C@H](O)C(C)(C)C3CC[C@]12C (stereo partly drawn) [CK, 20-O-β-(D-glucopyranosyl)-20(S)-protopanaxadiol, reference compound] | 73.6 ± 3.4 | 63.1 ± 2.7 | 42.3 ± 1.5 | 80.7 ± 3.7 | 71.3 ± 7.1 | 59.3 ± 2.8 | No significant change in body weight | almost no difference | stabilized | 64.7 ± 9.3 | 53.4 ± 2.4 | 40.5 ± 0.9 | fast on/off rate | 55.7 | decreased significantly | no does-dependent response | 67.1 ± 4.6 | 64 ± 3.3 | 59.1 ± 3.4 | Percentage of apoptotic cells (A549 cells [1]; A549, 60 μM): significant increase in the percentage of apoptotic cells; IC50 (MHCC97-L cells): 49.8 ± 0.3 µM; IC50 (HepG2 cells): 43.6 ± 1.6 µM; IC50 (NCI-H460 cells [4]; Homo sapiens, NCI-H460, 72 h, read-out: Cytotoxicity IC50): 45.1 ± 0.4 µM; Cell viability with supplement of PG (A549 cells [5]; A549, 100 μM): almost two-fold restored; IC50 (SW480 cells): 46.2 ± 2.1 µM; Thermal stability of PRELID3b (CETSA) (PRELID3b; 50 μM): stabilization; IC50 (Hela cells): 36.2 ± 1.2 µM; Formation of tube (MS 1 cells; 40 μM): inhibited; Thermal stability of PRELID1 (CETSA) (PRELID1 [6]; 50 μM): stabilization; Level of cytochrome c in cytosol ([7]; 50 μM): dramatically enhanced; Cytochrome c release with PG in medium ([7]; 50 μM): not observed
COc1ccc(C2OCC3OC(OC(C)(CCC=C(C)C)C4CCC5(C)C4C(O)CC4C6(C)CCC(O)C(C)(C)C6CCC45C)C(O)C(O)C3O2)cc1 (centres unmarked) [CKD-4] | 57.5 ± 0.6 | 25.9 ± 4.4 | 17.9 ± 2.8 | 43.7 ± 4.4 | 25.1 ± 1.5 | 20.3 ± 1.1 | No significant change in body weight | significant tumor volume inhibition | stabilized | 23.3 ± 1.4 | 16.5 | 15.4 ± 0.1 | slower | 5.3 | decreased significantly | no does-dependent response | 30.8 ± 3.7 | 23.9 ± 0.9 | 17.4 ± 1.2 | Percentage of apoptotic cells (A549 cells [1]; A549, 20 μM): significant increase in the percentage of apoptotic cells; Cell viability with supplement of PG (A549 cells [5]; A549, 12.5 μM): almost two-fold restored; Cytotoxic potency in comparison with CK (NCI-H460 cells [10]): three-fold more potent; Thermal stability of PRELID3b (CETSA) (PRELID3b; 15 uM): stabilization; Kd smaller than Kd of CK (PRELID3b-TRIAP1-MBP): ~7 fold; Formation of tube (MS 1 cells; 15 μM): inhibition is more obvious; Thermal stability of PRELID1 (CETSA) (PRELID1 [6]; 15 μM): stabilization; Level of cytochrome c in cytosol ([7]; 15 μM): dramatically enhanced; Cytochrome c release with PG in medium ([7]; 15 μM): Reduced level of cytochrome c was released; Suppression of cell viability ([11]; 20 μM, CellTiterGlo): less than 30%; Growth of patient derived organoid ([11]; 5, 10, 20, 35 and 50 μM): significantly inhibits the growth of patient derived organoid in a dose dependent manner; Amount of CK found in CKD-4 treated cells (A549 cells [12]; 4 h): 1.33 % of total amount of CKD-4; Amount of CK found in CKD-4 treated cells (A549 cells [12]; 24 h): 1.05 % of total amount of CKD-4
CC(=O)OCC1OC(OC(C)(CCC=C(C)C)C2CCC3(C)C2C(OC(C)=O)CC2C4(C)CCC(OC(C)=O)C(C)(C)C4CCC23C)C(OC(C)=O)C(OC(C)=O)C1OC(C)=O (centres unmarked) [CKD-1] | – | – | – | – | – | – | – | – | – | – | – | – | – | – | – | – | – | – | – | Solubility (Solubility): poor solubility; IC50 (NCI-H460 cells [4]; read-out: Cytotoxicity IC50, NCI-H460 cells, 48 h (Table 2)): > 100 µM
